# Publication PMC11090211 (Chemico-biological interactions, 2024)
# Read-outs that look alike come from different tables or passages of the source.
# Experiments:
# H44R/H48Q yeast ADH [1] = target: T1, H44R/H48Q yeast ADH (Saccharomyces cerevisiae, UniProt P00330, H45R/H49Q); assay type: biochemical; settings: for VD1, isotope effect for oxidation of ethanol: 550 mM ethanol, 2 mM NAD^+, single concentration, duplicate
# [2] = target: T2, H44R/H48Q yeast alcohol dehydrogenase (Saccharomyces cerevisiae, UniProt P00330, H45R/H49Q)
# T2 sequence (P00330 2-348 H45R/H49Q): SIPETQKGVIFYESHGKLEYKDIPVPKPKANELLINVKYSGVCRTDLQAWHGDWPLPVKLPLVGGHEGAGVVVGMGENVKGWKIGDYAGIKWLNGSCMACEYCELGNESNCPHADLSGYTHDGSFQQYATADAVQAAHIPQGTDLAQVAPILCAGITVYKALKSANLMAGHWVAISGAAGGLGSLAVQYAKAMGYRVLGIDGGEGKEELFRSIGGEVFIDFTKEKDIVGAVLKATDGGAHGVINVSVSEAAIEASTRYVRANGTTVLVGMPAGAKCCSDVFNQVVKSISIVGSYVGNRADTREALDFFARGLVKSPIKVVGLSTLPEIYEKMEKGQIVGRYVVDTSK
# [3] = test system: wild-type yeast alcohol dehydrogenase; settings: cited from earlier work
# [4] = target: H44R yeast alcohol dehydrogenase; settings: pH 7.3, 30 °C, cited from earlier work
# [5] = target: H48Q yeast alcohol dehydrogenase; settings: pH 7.3, 30 °C, cited from earlier work
# [6] = target: T2, H44R/H48Q yeast alcohol dehydrogenase; assay: biochemical
# H44R/H48Q yeast ADH [7] = target: T1, H44R/H48Q yeast ADH; assay type: biochemical
# wild-type yeast ADH [8] = target: T3, wild-type yeast ADH (Saccharomyces cerevisiae, UniProt P00330); settings: cited from earlier work
# T3 sequence (P00330 1-348): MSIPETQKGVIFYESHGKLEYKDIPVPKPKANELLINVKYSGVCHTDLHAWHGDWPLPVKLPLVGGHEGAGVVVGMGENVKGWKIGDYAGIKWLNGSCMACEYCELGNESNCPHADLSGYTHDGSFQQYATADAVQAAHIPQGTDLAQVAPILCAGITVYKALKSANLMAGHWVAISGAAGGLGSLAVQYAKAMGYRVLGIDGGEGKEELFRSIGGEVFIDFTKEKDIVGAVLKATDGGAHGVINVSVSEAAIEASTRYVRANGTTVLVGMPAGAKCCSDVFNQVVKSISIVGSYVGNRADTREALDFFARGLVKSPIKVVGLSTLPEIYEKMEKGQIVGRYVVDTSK
# wild-type yeast ADH [9] = target: T3, wild-type yeast ADH; assay: Inactivation by diethyl pyrocarbonate; assay type: biochemical; settings: pH 8.0, 30 °C
# H44R yeast ADH [10] = target: T4, H44R yeast ADH (Saccharomyces cerevisiae, UniProt P00330, H45R); assay: Inactivation by diethyl pyrocarbonate; assay type: biochemical; settings: pH 8.0, 30 °C
# T4 sequence (P00330 2-348 H45R): as the sequence (P00330 2-348 H45R/H49Q) above, with Q48H counted along it
# H48Q yeast ADH [11] = target: T5, H48Q yeast ADH (Saccharomyces cerevisiae, UniProt P00330, H49Q); assay: Inactivation by diethyl pyrocarbonate; assay type: biochemical; settings: pH 8.0, 30 °C
# T5 sequence (P00330 2-348 H49Q): as the sequence (P00330 2-348 H45R/H49Q) above, with R44H counted along it
# H44R/H48Q yeast ADH [12] = target: T1, H44R/H48Q yeast ADH; assay: Inactivation by diethyl pyrocarbonate; assay type: biochemical; settings: pH 8.0, 30 °C
# wild-type yeast ADH [13] = target: T3, wild-type yeast ADH; settings: cited from earlier work; remark: listed apart in the source
# wild-type yeast ADH [14] = target: T3, wild-type yeast ADH; settings: ethanol or ethanol-d5 15–200 mM, 10 mM NAD^+, 30 °C, ref 6 and 9, cited from earlier work
# H44R yeast ADH [15] = target: T4, H44R yeast ADH; settings: ethanol or ethanol-d5 15–200 mM, 10 mM NAD^+, 30 °C, ref 6 and 9, cited from earlier work
# H48Q yeast ADH [16] = target: T5, H48Q yeast ADH; settings: ethanol or ethanol-d5 15–200 mM, 10 mM NAD^+, 30 °C, ref 6 and 9, cited from earlier work
# [17] = read-out: Ki, CF3CH2OH, 83 mM potassium phosphate, 40 mM KCl
# [18] = pH 7.3, 30 °C, 83 mM potassium phosphate, 40 mM KCl
# [19] = read-out: Kiq, inhibition (dissociation) constant for NADH, pH 7.3, 30 °C, 83 mM potassium phosphate, 40 mM KCl
# [20] = 83 mM potassium phosphate, 40 mM KCl
# [21] = read-out: Kiq, inhibition (dissociation) constant for NADH, 83 mM potassium phosphate, 40 mM KCl
# [22] = read-out: Kia, inhibition (dissociation) constant for NAD^+, 83 mM potassium phosphate, 40 mM KCl
# [23] = 90 μM diethyl pyrocarbonate, 33 mM sodium phosphate buffer
# [24] = after 90 μM diethyl pyrocarbonate
# T1 sequence (P00330 2-348 H45R/H49Q): as the sequence (P00330 2-348 H45R/H49Q) above
compound,measurement,setting,value
CCCCO [1-butanol],"average isotope effect, butanol oxidation","H44R/H48Q yeast ADH [1]; 5 mM 1-butanol or 1-butanol-d9, 2 mM NAD^+, pH range from 6.5 to 10.5",4.2
same,"Catalytic efficiency with butanol, fold lower than with ethanol",[2],about 20 fold
same,Km,[2]; 1-butanol,~30 mM
same,"Catalytic efficiency with butanol, fold lower than with ethanol",[3],about 20 fold
"OCC(F)(F)F [CF3CH2OH, 2,2,2-trifluoroethanol, reference compound]",Ki,"[3]; read-out: Ki, CF3CH2OH, pH 7.3, 30 °C, 83 mM potassium phosphate, 40 mM KCl",2500 µM
same,Ki,[4]; [17],19000 µM
same,Ki,[5]; [17],33000 µM
same,Ki,[6],55000 µM
NC(=O)C1=CN([C@@H]2O[C@H](COP(=O)([O-])OP(=O)([O-])OC[C@H]3O[C@@H](n4cnc5c(N)ncnc54)[C@H](O)[C@@H]3O)[C@@H](O)[C@H]2O)C=CC1.[Na+].[Na+] [NADH],pK of pH dependence of Kiq,H44R/H48Q yeast ADH [7],8.9 ± 0.2
same,pK of pH dependence of V2/Etkq,H44R/H48Q yeast ADH [7],8.8 ± 0.1
same,"Kiq, limiting value ka",H44R/H48Q yeast ADH [7]; EH form,ka 7.9 ± 1.4 μM
same,"V2/Etkq, limiting value ka",H44R/H48Q yeast ADH [7]; EH form,ka 16 ± 2 μM^−1s^−1
same,"rate constant for dissociation, calculated from V2Kiq/EtKq",H44R/H48Q yeast ADH [7]; essentially pH independent,120 s⁻¹
same,"Kq, Michaelis constant for NADH",[2]; [18],42 pM
same,Ki,[2]; [19],3.5 µM
same,"Kq, Michaelis constant for NADH",[3]; [18],94 pM
same,Ki,[3]; [19],31 µM
same,"Kiq, limiting value ka",wild-type yeast ADH [8]; EH form,15 ± 2 µM
same,"V2/Etkq, limiting value",wild-type yeast ADH [8],32 ± 3 µM⁻¹ s⁻¹
same,pK of pH dependence of Kiq,wild-type yeast ADH [8],7.4 ± 0.2
same,pK of pH dependence of V2/Etkq,wild-type yeast ADH [8],7.8 ± 0.2
same,"Kq, Michaelis constant for NADH",[4]; [20],10 pM
same,Ki,[4]; [21],16 µM
same,"Kq, Michaelis constant for NADH",[5]; [20],110 pM
same,Ki,[5]; [21],13 µM
N=C([O-])c1ccc[n+]([C@@H]2O[C@H](COP(=O)(O)OP(=O)([O-])OC[C@H]3O[C@@H](n4cnc5c(N)ncnc54)[C@H](O)[C@@H]3O)[C@@H](O)[C@H]2O)c1.[Li+] [NAD^+],pK of pH dependence of Kia,H44R/H48Q yeast ADH [7],~pH independent
same,pK of pH dependence of V1/EtKa,H44R/H48Q yeast ADH [7],8.03 ± 0.04
same,Ki,"H44R/H48Q yeast ADH [7]; read-out: Kia, at pH 7",160 µM
same,"Ka, Michaelis constant for NAD^+",[2]; [18],320 µM
same,"Ka, Michaelis constant for NAD^+",[3]; [18],160 µM
same,Ki,"[3]; read-out: Kia, inhibition (dissociation) constant for NAD^+, pH 7.3, 30 °C, 83 mM potassium phosphate, 40 mM KCl",950 µM
same,"Kia, limiting value ka",wild-type yeast ADH [8]; EH form,0.54 ± 0.06 mM
same,V1/EtKa,wild-type yeast ADH [8]; at pH 7,1570 (at pH 7) mM^−1s^−1
same,pK of pH dependence of Kia,wild-type yeast ADH [8],8.1 ± 0.2
same,slope of pH dependence of V1/EtKa,wild-type yeast ADH [8],−0.11 ± 0.02
same,"Ka, Michaelis constant for NAD^+",[4]; [20],150 µM
same,Ki,[4]; [22],260 µM
same,"Ka, Michaelis constant for NAD^+",[5]; [20],100 µM
same,Ki,[5]; [22],410 µM
CC=O [acetaldehyde],"isotope effect (for VD2/Kp), acetaldehyde reduction","H44R/H48Q yeast ADH [1]; 1 mM acetaldehyde with 0.15 mM NADH, over the pH range",~ 2
same,pK of pH dependence of V2/Et,H44R/H48Q yeast ADH [7],9.6 ± 0.1
same,"V2/Et, limiting value ka",H44R/H48Q yeast ADH [7]; EH form,ka 850 ± 60 s^−1
same,"V1/EtKp, limiting value ka","H44R/H48Q yeast ADH [7]; EH form, NADH and acetaldehyde",ka 32 ± 3 mM^−1s^−1
same,pK of pH dependence of V1/EtKp,H44R/H48Q yeast ADH [7]; NADH and acetaldehyde,9.5 ± 0.1
same,"Kp, Michaelis constant for acetaldehyde",[2]; [18],22 mM
same,"V2/Et, turnover number for acetaldehyde reduction",[2]; [18],1040 s⁻¹
same,"V2/Etkp, catalytic efficiency for acetaldehyde reduction",[2]; [18],47 mM⁻¹ s⁻¹
same,V2/EtkpKiq,"[3]; NADH and acetaldehyde, pH 7.3, 30 °C",77000 mM^−2 s^−1
same,"Kp, Michaelis constant for acetaldehyde",[3]; [18],0.74 mM
same,"V2/Et, turnover number for acetaldehyde reduction",[3]; [18],1800 s⁻¹
same,Ki,"[3]; read-out: Kip, intercept inhibition constant, product inhibition studies, pH 7.3, 30 °C",1500 µM
same,"V1/EtKp, limiting value ka","wild-type yeast ADH [8]; EH form, NADH and acetaldehyde",ka 3200 ± 200 mM^−1s^−1
same,"V2/Et, limiting value ka",wild-type yeast ADH [8]; EH form,3600 ± 300 s⁻¹
same,pK of pH dependence of V1/EtKp,wild-type yeast ADH [8]; NADH and acetaldehyde,7.7 ± 0.1
same,pK of pH dependence of V2/Et,wild-type yeast ADH [8],7.8 ± 0.2
same,V2/EtkpKiq,[4]; NADH and acetaldehyde,6100 mM^−2 s^−1
same,"Kp, Michaelis constant for acetaldehyde",[4]; [20],4.7 mM
same,"V2/Et, turnover number for acetaldehyde reduction",[4]; [20],460 s⁻¹
same,"V2/Etkp, catalytic efficiency for acetaldehyde reduction",[4]; [20],98 mM⁻¹ s⁻¹
same,V2/EtkpKiq,[5]; NADH and acetaldehyde,19000 mM^−2 s^−1
same,"Kp, Michaelis constant for acetaldehyde",[5]; [20],12 mM
same,"V2/Et, turnover number for acetaldehyde reduction",[5]; [20],3000 s⁻¹
same,"V2/Etkp, catalytic efficiency for acetaldehyde reduction",[5]; [20],250 mM⁻¹ s⁻¹
CCOC(=O)OC(=O)OCC [diethyl pyrocarbonate],Inactivation constant,wild-type yeast ADH [9]; [23],180 M⁻¹ s⁻¹
same,Residual activity (% of initial),wild-type yeast ADH [9]; [24],3.1 % of initial
same,Inactivation constant,H44R yeast ADH [10]; [23],31 M⁻¹ s⁻¹
same,Residual activity (% of initial),H44R yeast ADH [10]; [24],30 % of initial
same,Inactivation constant,H48Q yeast ADH [11]; [23],25 M⁻¹ s⁻¹
same,Residual activity (% of initial),H48Q yeast ADH [11]; [24],55 % of initial
same,Inactivation constant,"H44R/H48Q yeast ADH [12]; 120 μM diethyl pyrocarbonate, 33 mM sodium phosphate buffer",11 M⁻¹ s⁻¹
same,Residual activity (% of initial),H44R/H48Q yeast ADH [12]; after 120 μM diethyl pyrocarbonate,64 % of initial
same,pK of the rate of inactivation by diethyl pyrocarbonate,wild-type yeast ADH [13]; enzyme-NADH complex,8.7
same,pK value of the rate of inactivation by diethyl pyrocarbonate,wild-type yeast ADH [13]; free enzyme,7.1
CCO [ethanol],"VD1, isotope effect for oxidation of ethanol",H44R/H48Q yeast ADH [1]; pH 6 (MES),2.8
same,"VD1, isotope effect for oxidation of ethanol",H44R/H48Q yeast ADH [1]; pH 7 (MOPS),4.2
same,"VD1, isotope effect for oxidation of ethanol",H44R/H48Q yeast ADH [1]; pH 8 (TAPS),2.9
same,"VD1, isotope effect for oxidation of ethanol",H44R/H48Q yeast ADH [1]; pH 9 (TAPS),2.3
same,"VD1, isotope effect for oxidation of ethanol",H44R/H48Q yeast ADH [1]; pH 10 (CAPSO),1.8
same,pK of pH dependence of V1/EtKb,H44R/H48Q yeast ADH [7],8.5 ± 0.1
same,pK1 of pH dependence of V1/Et,"H44R/H48Q yeast ADH [7]; deprotonation of H2E, NAD^+ and ethanol",7.0 ± 0.2
same,pK2 of pH dependence of V1/Et,"H44R/H48Q yeast ADH [7]; deprotonation of HE, NAD^+ and ethanol",9.2 ± 0.3
same,"V1/Et, turnover number for ethanol oxidation",[2]; [18],24 s⁻¹
same,"KbKia/Ka, slope inhibition constant","[2]; product inhibition studies, pH 7.3, 30 °C",36 mM
same,"V1/Et, turnover number for ethanol oxidation",[3]; [18],360 s⁻¹
same,"VD1, isotope effect for oxidation of ethanol",wild-type yeast ADH [14]; pH 6,2.0
same,"VD1, isotope effect for oxidation of ethanol",wild-type yeast ADH [14]; pH 7,1.8
same,"VD1, isotope effect for oxidation of ethanol",wild-type yeast ADH [14]; pH 8,1.8
same,"VD1, isotope effect for oxidation of ethanol",wild-type yeast ADH [14]; pH 9,1.4
same,"VD1, isotope effect for oxidation of ethanol",wild-type yeast ADH [14]; pH 10,1.3
same,"V1/EtKb, limiting value ka",wild-type yeast ADH [8]; EH form,3500 ± 900 M⁻¹ s⁻¹
same,pK of pH dependence of V1/Et,wild-type yeast ADH [8],7.3 ± 0.1
same,pK of pH dependence of V1/EtKb,wild-type yeast ADH [8],7.8 ± 0.2
same,"V1/Et, turnover number for ethanol oxidation",[4]; [20],60 s⁻¹
same,"V1/Et, turnover number for ethanol oxidation",[5]; [20],30 s⁻¹
same,"VD1, isotope effect for oxidation of ethanol",H44R yeast ADH [15]; pH 6,3.5
same,"VD1, isotope effect for oxidation of ethanol",H44R yeast ADH [15]; pH 7,1.7
same,"VD1, isotope effect for oxidation of ethanol",H44R yeast ADH [15]; pH 8,1.2
same,"VD1, isotope effect for oxidation of ethanol",H44R yeast ADH [15]; pH 9,1.1
same,"VD1, isotope effect for oxidation of ethanol",H44R yeast ADH [15]; pH 10,1.1
same,"VD1, isotope effect for oxidation of ethanol",H48Q yeast ADH [16]; pH 6,3.9
same,"VD1, isotope effect for oxidation of ethanol",H48Q yeast ADH [16]; pH 7,4.2
same,"VD1, isotope effect for oxidation of ethanol",H48Q yeast ADH [16]; pH 8,3.3
same,"VD1, isotope effect for oxidation of ethanol",H48Q yeast ADH [16]; pH 9,2.9
same,"VD1, isotope effect for oxidation of ethanol",H48Q yeast ADH [16]; pH 10,2.3
